Reference: patent US20240197828A1, “Chimeric molecule to treat sepsis and other inflammatory conditions” (THE FEINSTEIN INSTITUTES FOR MEDICAL RESEARCH, priority 2022, published 2024)
Residues, ends and D or L forms follow the SMILES beside them.

Key:
WT mice [1] = assay: Sterile eCIRP-induced inflammation by rmCIRP injection in mice; assay type: in vivo, mouse; details: rmCIRP 5 mg/kg co-incubated 30 min with test substance, r.o. injection, 4 hours, vs eCIRP alone
Method: FIG. 5A-5B. eCIRP-induced inflammation is attenuated by MOP3. WT mice were treated according to respective groups: PBS (volume equivalent), rmCIRP (5 mg/kg), or MOP3 (10 μg/kg) co-incubated with rmCIRP (5 mg/kg) for 30 mins prior to r.o. injection. After 4 hours, serum was measured for IL-6 (A) and TNFα (B) levels by ELISA. All experiments were performed 3 times, and all data were used for analysis (N=7-10). Data are expressed as mean±SEM and compared by one-way ANOVA and SNK test. *p<0.05 vs. PBS, #p<0.05 vs. eCIRP.
Adult (8-12 weeks) male, C57BL/6 wild-type (WT) mice (20-30 g) were purchased from Charles River Laboratories. […] For the design of in vivo models, sample size calculation was driven by variability, effect size, significance level and power as determined through performance of early feasibility and optimization pilot studies. […]
The mouse macrophage cell culture supernatants were analyzed for cytokine levels using ELISA kits (BD Biosciences, CA). […] TNF-α and IL-6 levels were measured in cell supernatants by ELISA in accordance with respective manufacturers' instructions (BD Biosciences, CA). Blood was collected, centrifuged at 4,000 RPM for 10 minutes, and sera was separated and analyzed for cytokine levels using ELISA kits (BD Biosciences, CA). TNF-α and IL-6 levels in the serum were measured by ELISA in accordance with respective manufacturers' instructions. […]

WT mice [2] = assay: CLP-induced polymicrobial sepsis, 20 hours; assay type: in vivo, mouse; details: vs vehicle
Method: FIG. 6A-6M: MOP3 ameliorates inflammation, lung injury, and improves survival in sepsis. WT mice subjected to CLP-induced sepsis with MOP3 treatment (10 μg/kg) or vehicle (volume-equivalent). After 20 hours, blood and lung tissue collected for respective analyses. (A-C) Serum was analyzed for systemic eCIRP, IL-6, and TNFα levels by ELISA. (D-F) Serum was analyzed for ALT, AST, and LDH by calorimetric assays. (G-I) Lung tissue was frozen and mRNA expression of IL-6, TNFα, and IL-1β was measured by PCR and MPO by calorimetric assay. (J) Lung tissue was frozen and analyzed for MPO levels by calorimetric assay. (K) Lungs were sectioned, imaged for histologic injury by H&E staining, and performed lung injury scoring. (L) Sectioned lungs were stained for TUNEL positive cells and cell counts were quantified. All experiments were performed 3 times, and all data were used for analysis (N=6-18). Data are expressed as mean±SEM and compared by one-way ANOVA and SNK test. *p<0.05 vs. sham, #p<0.05 vs. CLP vehicle. (M) WT mice subjected to CLP-induced sepsis with MOP3 treatment (10 μg/kg) or vehicle (volume equivalent) and monitored for 10 days for humane endpoints, and differences in survival were determined (N=17 per group). *p<0.05 vs. CLP vehicle.
Adult (8-12 weeks) male, C57BL/6 wild-type (WT) mice (20-30 g) were purchased from Charles River Laboratories. MFG-E8 knockout mice (MFG-E8^−/−) were originally obtained from Dr. Shigekazu Nagata, Osaka University of Japan, and bred following our Institutional Animal Care and Use Committee (IACUC) policies. Age-matched, healthy mice were used in all experiments. Animals were randomly assigned to sham, vehicle, or treatment groups. Concerted effort was made to ensure that a limited number of animals were used in each experiment. All experiments were previously approved by IACUC of the Feinstein Institutes for Medical Research (Manhasset, NY) and were performed in accordance with the guidance for the use of experimental animals by the National Institutes of Health (Bethesda, MD). For the design of in vivo models, sample size calculation was driven by variability, effect size, significance level and power as determined through performance of early feasibility and optimization pilot studies.
Sepsis was induced in mice by cecal ligation and puncture (CLP) as previously described (4). Briefly, mice were anesthetized with inhaled isoflurane to achieve adequate anesthesia. After placement in the supine position, the abdomen was shaved and disinfected. A 2-cm midline laparotomy was created. The cecum was located and eviscerated from the abdomen and then ligated with a 4-0 silk suture approximately 1 cm proximal from the terminal cecal extremity. For short-term experiments using this polymicrobial sepsis model, the cecum was punctured twice (through and through) with a 22G needle. Careful extraction of a consistent, small amount of cecal content was extruded, and the cecum along with cecal content was returned to the peritoneal cavity. […] All comparative surgeries were performed on the same day to reduce severity-variability. All short-term experiments were repeated at least three-times to ensure reproducibility of relative markers of inflammation and injury.
For respective experiments, either WT or MFG-E8 knockout mice were subjected to CLP. For treatment experiments, mice were randomly assigned to either vehicle or treatment groups. MOP3 ([…]) was given via retroorbital (r.o.) injection at time of surgery, immediately following abdominal closure. Vehicle groups received an equivalent volume of normal saline via r.o. injection. For resuscitation, mice additionally received subcutaneous injection of 500 μL of normal saline immediately after abdominal closure.
The mouse macrophage cell culture supernatants were analyzed for cytokine levels using ELISA kits (BD Biosciences, CA). […]

CC(C)C[C@H](NC(=O)[C@H](CC(N)=O)NC(=O)[C@H](Cc1c[nH]c2ccccc12)NC(=O)[C@@H](NC(=O)[C@H](CCCCN)NC(=O)[C@H](Cc1ccc(O)cc1)NC(=O)[C@H](CO)NC(=O)[C@H](CO)NC(=O)[C@H](CO)NC(=O)[C@H](CC(=O)O)NC(=O)CNC(=O)[C@@H](N)CCCNC(=N)N)[C@@H](C)O)C(=O)N[C@@H](CCCNC(=N)N)C(=O)N[C@@H](C)C(=O)N[C@@H](Cc1ccccc1)C(=O)NCC(=O)N[C@@H](Cc1c[nH]c2ccccc12)C(=O)N[C@@H](Cc1ccc(O)cc1)C(=O)O [MOP3, RGDSSSYKTWNLRAFGWY] (H-RGDSSSYKTWNLRAFGWY-OH; N-terminus and C-terminus assumed)
serum IL-6 levels (WT mice [1]): reduced systemic levels | serum TNFα levels (WT mice [1]): reduced systemic levels | lung tissue mRNA levels of IL-1β (WT mice [2]; PCR): reduced | lung tissue mRNA levels of IL-6 (WT mice [2]; PCR): reduced | lung tissue mRNA levels of TNFα (WT mice [2]; PCR): reduced | serum levels of eCIRP (WT mice [2]; one-time intravenous MOP3 at surgical closure): significantly reduced | systemic IL-6 (WT mice [2]; serum): attenuated systemic inflammation | systemic TNFα (WT mice [2]; serum): attenuated systemic inflammation | apoptotic cells in lungs (TUNEL) (WT mice [2]): significantly less apoptotic cells | lung MPO levels (WT mice [2]): decreased | lung histologic architecture (H&E, lung injury) (WT mice [2]): significantly preserved histologic architecture | serum ALT levels (WT mice [2]): reduced | serum AST levels (WT mice [2]): reduced | serum LDH levels (WT mice [2]): reduced
